In ChEMBL document CHEMBL1139373, “Metabolic soft spot identification and compound optimization in early discovery phases using MetaSite and LC-MS/MS validation” (J Med Chem, 2009):

Experiment: Metabolic stability in human liver microsomes assessed as intrinsic clearance per mg of protein

| Structure (SMILES) | microsomal CLint (microsomes) [µL/min/mg] | microsomal CLint (liver microsomes) [µL/min/mg] |
| --- | --- | --- |
| CNC1(c2ccccc2Cl)CCCCC1=O (stereo unspecified) [KETAMINE] | 136 |  |
| CC(=O)CC(c1ccc([N+](=O)[O-])cc1)c1c(O)c2ccccc2oc1=O (stereo unspecified) [ACENOCOUMAROL] |  | 37 |
| O=c1c(O)c(-c2ccc(O)cc2)oc2cc(O)cc(O)c12 [KAEMPFEROL] | 269 |  |
| CNCCCC12CCC(c3ccccc31)c1ccccc12 [MAPROTILINE] | 31 |  |
| CN(C)CCOc1ccc(/C(=C(/CCCl)c2ccccc2)c2ccccc2)cc1 [TOREMIFENE] |  | 31 |
| CC(/C=C/C(=O)NO)=C\[C@@H](C)C(=O)c1ccc(N(C)C)cc1 [TRICHOSTATIN] |  | 107 |
| CN1[C@@H]2CC[C@H]1C[C@@H](OC(=O)c1c[nH]c3ccccc13)C2 [TROPISETRON] |  | 22 |
| CN(C)CCCN1c2ccccc2Sc2ccc(Cl)cc21 [CHLORPROMAZINE] | 117 |  |
| c1ccc2c(c1)Sc1ccccc1N2CC1CN2CCC1CC2 (stereo unspecified) [MEQUITAZINE] |  | 34 |
| Cc1ncc2n1-c1ccc(Cl)cc1C(c1ccccc1F)=NC2 [MIDAZOLAM] | 554 |  |
| COc1ccc(C(CN(C)C)C2(O)CCCCC2)cc1 (stereo unspecified) [VENLAFAXINE] |  | 59 |
| CN1CC(=O)N2[C@H](c3ccc4c(c3)OCO4)c3[nH]c4ccccc4c3C[C@@H]2C1=O |  | 49 |
| CN(C)CCCC1(c2ccc(F)cc2)OCc2cc(C#N)ccc21 (stereo unspecified) [CITALOPRAM] |  | 36 |
| COc1ccccc1OCCNCC(O)COc1cccc2[nH]c3ccccc3c12 (stereo unspecified) [CARVEDILOL] | 235 |  |
| c1ccc(C2(c3ccccc3)CC2C2=NCCN2)cc1 (stereo unspecified) [CIFENLINE] |  | 28 |
| CC(C)COCC(CN(Cc1ccccc1)c1ccccc1)N1CCCC1 (stereo unspecified) [BEPRIDIL] |  | 94 |
